Values quoted from earlier work, collected in patent US20220031737A1, “PHARMACEUTICAL COMPOSITIONS COMPRISING CHROMIUM AND CARBOHYDRATE BLOCKERS” (GluCare LLC, priority 2016, published 2022).

Columns and labels:
[1] = overweight African-American females, caloric restriction and exercise combined with oral NBC
[2] = Sprague-Dawley rats, gavage, % of control
[3] = 1,000 μg of chromium per day

Q: Which “Fat loss and muscle loss compared to control group without NBC supplement” value [1] does the source give for niacin-bound chromium [NBC] here?
A: Its value is “increased fat loss and reduced muscle loss significantly”.

Q: Which “Glucose elevations above baseline over four hours following rice starch challenge, of control” value [2] does the source give for `O=C[C@H](O)[C@@H](O)[C@@H](O)CO` [L-arabinose] here?
A: Its value is 85%.

Q: With `[Cr]` [chromium] as the compound, how does the “Relief of symptoms of type 2 diabetes” value [3] read?
A: Its value is “highly effective”.
